Experimental data published in patent publication US10150757B2, “Quinazolinone derivatives as PARP inhibitors” (Janssen Pharmaceutica NV, priority 2004, dated 2018).
Values belong to the compound of their own block, whether it stands above or below them.

Tests used:
PARP-1 enzyme = PARP-1 enzyme (Homo sapiens, UniProt P09874); experiment: In vitro scintillation proximity assay (SPA) for PARP-1 inhibitory activity; type: biochemical; settings: [3H]-NAD+, biotinylated histones, nicked DNA; read-out: in vitro SPA assay PARP-1 pIC50 (converted)
Method: In Vitro Scintillation Proximity Assay (SPA) for PARP-1 Inhibitory Activity
Compounds of the present invention were tested in an in vitro assay based on SPA technology (proprietary to Amersham Pharmacia Biotech).
In principle, the assay relies upon the well established SPA technology for the detection of poly(ADP-ribosyl)ation of biotinylated target proteins, i.e histones. This ribosylation is induced using nicked DNA activated PARP-1 enzyme and [^3H]-nicotinamide adenine dinucleotide ([^3H]-NAD^+) as ADP-ribosyl donor.
As inducer of PARP-1 enzyme activity, nicked DNA was prepared. For this, 25 mg of DNA (supplier: Sigma) was dissolved in 25 ml DNAse buffer (10 mM Tris-HCl, pH 7.4; 0.5 mg/ml Bovine Serum Albumine (BSA); 5 mM MgCl2.6H2O and 1 mM KCl) to which 50 μl DNAse solution (1 mg/ml in 0.15M NaCl) was added. After an incubation of 90 min. at 37° C., the reaction was terminated by adding 1.45 g NaCl, followed by a further incubation at 58° C. for 15 min. The reaction mixture was cooled on ice and dialysed at 4° C. for respectively 1.5 and 2 hours against 1.5 l of 0.2M KCl, and twice against 1.5 l of 0.01M KCl for 1.5 and 2 h respectively. The mixture was aliquoted and stored at −20° C. Histones (1 mg/ml, type II-A, supplier: Sigma) were biotinylated using the biotinylation kit of Amersham and stored aliquoted at −20° C. A stock solution of 100 mg/ml SPA poly(vinyl toluene) (PVT) beads (supplier: Amersham) was made in PBS. A stock solution of [^3H]-NAD^+ was made by adding 120 μl of [^3H]-NAD^+ (0.1 mCi/ml, supplier: NEN) to 6 ml incubation buffer (50 mM Tris/HCl, pH 8; 0.2 mM DTT; 4 mM MgCl2). A solution of 4 mM NAD^+ (supplier: Roche) was made in incubation buffer (from a 100 mM stock solution in water stored at −20° C.). The PARP-1 enzyme was produced using art known techniques, i.e. cloning and expression of the protein starting from human liver cDNA. Information concerning the used protein sequence of the PARP-1 enzyme including literature references can be found in the Swiss-Prot database under primary accession number P09874. Biotinylated histones and PVT-SPA beads were mixed and pre-incubated for 30 min. at room temperature. PARP-1 enzyme (concentration was lot dependent) was mixed with the nicked DNA and the mixture was pre-incubated for 30 min. at 4° C. Equal parts of this histones/PVT-SPA beads solution and PARP-1 enzyme/DNA solution were mixed and 75 μl of this mixture together with 1 μl of compound in DMSO and 25 μl of [^3H]-NAD^+ was added per well into a 96-well microtiterplate. The final concentrations in the incubation mixture were 2 μg/ml for the biotinylated histones, 2 mg/ml for the PVT-SPA beads, 2 μg/ml for the nicked DNA and between 5-10 μg/ml for the PARP-1 enzyme. After incubation of the mixture for 15 min. at room temperature, the reaction was terminated by adding 100 μl of 4 mM NAD^+ in incubation buffer (final concentration 2 mM) and plates were mixed.
The beads were allowed to sediment for at least 15 min. and plates transferred to a TopCountNXT™ (Packard) for scintillation counting, values were expressed as counts per minute (cpm). For each experiment, controls (containing PARP-1 enzyme and DMSO without compound), a blank incubation (containing DMSO but no PARP-1 enzyme or compound) and samples (containing PARP-1 enzyme and compound dissolved in DMSO) were run in parallel. All compounds tested were dissolved and eventually further diluted in DMSO. In first instance, compounds were tested at a concentration of 10^−5M. […] In each test, the blank value was subtracted from both the control and the sample values. The control sample represented maximal PARP-1 enzyme activity. For each sample, the amount of cpm was expressed as a percentage of the mean cpm value of the controls. […] Herein the effects of test compounds are expressed as pIC50 (the negative log value of the IC50-value).

TANK-2 enzyme = target: T1, TANK-2 enzyme (Homo sapiens, UniProt Q9H2K2); experiment: In vitro scintillation proximity assay (SPA) for TANK-2 inhibitory activity; type: biochemical; settings: auto-poly(ADP-ribosyl)ation; 96-well plate results if available, otherwise 384-well; read-out: in vitro SPA assay TANK-2 pIC50 (converted)
T1 construct: made in house
T1 sequence (Q9H2K2 1-1166): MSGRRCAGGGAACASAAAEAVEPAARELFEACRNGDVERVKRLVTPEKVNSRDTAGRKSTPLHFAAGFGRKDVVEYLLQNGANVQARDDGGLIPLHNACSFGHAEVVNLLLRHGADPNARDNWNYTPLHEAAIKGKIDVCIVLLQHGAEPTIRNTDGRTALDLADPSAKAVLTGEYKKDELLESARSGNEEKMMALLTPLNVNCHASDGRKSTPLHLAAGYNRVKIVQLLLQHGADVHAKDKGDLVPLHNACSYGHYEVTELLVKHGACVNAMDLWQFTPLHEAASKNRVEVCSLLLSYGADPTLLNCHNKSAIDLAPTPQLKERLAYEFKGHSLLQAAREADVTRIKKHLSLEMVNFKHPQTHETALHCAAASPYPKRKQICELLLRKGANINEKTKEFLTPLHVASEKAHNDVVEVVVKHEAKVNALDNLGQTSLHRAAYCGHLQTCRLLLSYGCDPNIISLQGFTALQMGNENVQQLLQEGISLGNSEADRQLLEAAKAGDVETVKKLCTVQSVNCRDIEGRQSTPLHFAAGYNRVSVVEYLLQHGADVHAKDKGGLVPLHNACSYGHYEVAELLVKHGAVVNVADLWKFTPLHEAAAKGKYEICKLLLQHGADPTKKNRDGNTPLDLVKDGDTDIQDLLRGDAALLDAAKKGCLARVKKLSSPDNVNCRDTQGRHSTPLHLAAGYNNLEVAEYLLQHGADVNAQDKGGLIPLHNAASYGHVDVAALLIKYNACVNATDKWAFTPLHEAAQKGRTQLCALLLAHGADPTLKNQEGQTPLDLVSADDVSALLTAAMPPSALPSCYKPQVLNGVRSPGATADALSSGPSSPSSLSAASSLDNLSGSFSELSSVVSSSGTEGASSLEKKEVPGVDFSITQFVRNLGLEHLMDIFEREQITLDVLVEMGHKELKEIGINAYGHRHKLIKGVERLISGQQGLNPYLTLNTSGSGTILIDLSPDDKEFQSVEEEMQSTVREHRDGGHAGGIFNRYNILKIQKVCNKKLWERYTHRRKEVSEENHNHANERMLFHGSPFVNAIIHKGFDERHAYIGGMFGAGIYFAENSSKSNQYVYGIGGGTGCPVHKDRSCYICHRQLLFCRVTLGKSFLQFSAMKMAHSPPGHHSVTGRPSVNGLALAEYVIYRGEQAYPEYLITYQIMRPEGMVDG
Method: In Vitro Scintillation Proximity Assay (SPA) for TANK-2 Inhibitory Activity
Compounds of the present invention were tested in an in vitro assay based on SPA technology with Ni Flash plates (96 or 384 well).
In principle, the assay relies upon SPA technology for the detection of auto-poly(ADP-ribosyl)ation of TANK-2 protein using [^3H]-nicotinamide adenine dinucleotide ([^3H]-NAD^+) as ADP-ribosyl donor.
A stock solution of [^3H]-NAD^+/NAD was made by adding 64.6 μl of [^3H]-NAD^+ (0.1 mCi/ml, supplier: Perkin Elmer) and 46.7 μl NAD-stock (10.7 mM, stored at −20° C., supplier Roche) to 1888.7 μl assay buffer (60 mM Tris/HCl, pH 7.4; 0.9 mM DTT; 6 mM MgCl2). The TANK-2 enzyme was produced as described in EP1238063. 60 μl of assay buffer, together with 1 μl of compound in DMSO, 20 μl of [^3H]-NAD^+/NAD and 20 μl of TANK-2 enzyme (final concentration 6 μg/ml) was added per well into a 96-well Ni-coated flash plate (Perkin Elmer). After incubation of the mixture for 120 min. at room temperature, the reaction was terminated by adding 60 μl of stop solution (42.6 mg NAD in 6 ml H2O). The plates were covered with a plate sealer and placed in a TopCountNXT™ (Packard) for scintillation counting. Values were expressed as counts per minute (cpm). For each experiment, controls (containing TANK-2 enzyme and DMSO without compound), a blank incubation (containing DMSO but no TANK-2 enzyme or compound) and samples (containing TANK-2 enzyme and compound dissolved in DMSO) were run in parallel. All compounds tested were dissolved and eventually further diluted in DMSO. In first instance, compounds were tested at a concentration of 10^−5M. […] In each test, the blank value was subtracted from both the control and the sample values. The control sample represented maximal TANK-2 enzyme activity. For each sample, the amount of cpm was expressed as a percentage of the mean cpm value of the controls. When appropriate, IC50-values (concentration of the drug, needed to reduce the TANK-2 enzyme activity to 50% of the control) were computed using linear interpolation between the experimental points just above and below the 50% level. Herein the effects of test compounds are expressed as pIC50 (the negative log value of the IC50-value). As reference compounds, 3-aminobenzamide and 4-amino-1,8-naphthalimide were included to validate the SPA assay. Herein the assay was described using 96-well plates. In the assay using 384-well plates the same final concentrations were used and volumes were adapted.

[1] = system: ischemia and reperfusion of the heart; settings: rabbits, cited from earlier work
colitis = settings: rats, colitis by intraluminal trinitrobenzene sulfonic acid in 50% ethanol; cited from earlier work

PARP-1 enzyme, sequence (P09874 whole entry): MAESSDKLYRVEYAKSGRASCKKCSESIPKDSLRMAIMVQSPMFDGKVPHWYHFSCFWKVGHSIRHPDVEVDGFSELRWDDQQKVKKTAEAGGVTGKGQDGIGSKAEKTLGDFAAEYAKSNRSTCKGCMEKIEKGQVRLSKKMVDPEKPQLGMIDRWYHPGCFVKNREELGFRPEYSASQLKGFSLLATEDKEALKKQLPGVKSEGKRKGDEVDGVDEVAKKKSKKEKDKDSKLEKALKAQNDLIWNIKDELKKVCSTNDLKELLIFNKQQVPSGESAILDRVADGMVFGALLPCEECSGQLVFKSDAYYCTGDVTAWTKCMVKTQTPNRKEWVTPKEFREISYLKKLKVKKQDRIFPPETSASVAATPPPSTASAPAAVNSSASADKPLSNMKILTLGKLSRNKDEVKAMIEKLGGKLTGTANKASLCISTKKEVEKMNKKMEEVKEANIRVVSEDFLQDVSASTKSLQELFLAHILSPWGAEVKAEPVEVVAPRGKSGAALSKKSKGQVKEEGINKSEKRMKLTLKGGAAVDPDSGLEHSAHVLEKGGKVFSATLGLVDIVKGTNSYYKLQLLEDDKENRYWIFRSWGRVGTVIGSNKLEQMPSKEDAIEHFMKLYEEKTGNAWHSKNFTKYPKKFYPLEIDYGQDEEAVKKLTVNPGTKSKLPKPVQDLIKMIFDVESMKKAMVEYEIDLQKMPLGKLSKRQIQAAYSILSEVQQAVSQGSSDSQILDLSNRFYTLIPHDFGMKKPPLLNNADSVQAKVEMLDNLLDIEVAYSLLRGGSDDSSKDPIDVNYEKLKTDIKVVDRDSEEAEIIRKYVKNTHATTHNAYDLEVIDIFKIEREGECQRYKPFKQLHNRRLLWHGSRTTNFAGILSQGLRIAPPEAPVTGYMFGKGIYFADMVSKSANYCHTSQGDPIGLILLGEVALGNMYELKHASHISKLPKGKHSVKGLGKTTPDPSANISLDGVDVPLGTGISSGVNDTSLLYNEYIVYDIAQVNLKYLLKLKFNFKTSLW

SMILES: CC1(C)Cc2cc(Cl)cc(C(=O)NC3CCN(CCCNc4nc(O)c5ccccc5n4)CC3)c2O1 [Compound 11]
IC50 (TANK-2 enzyme): > 10 µM

SMILES: Oc1cccc2c(O)nccc12 [1,5-dihydroxyisoquinoline]
reduced infarct size ([1]; single injection 1 mg/kg): 38-48%

SMILES: CO[C@H]1CN(CCNc2nc(O)c3ccccc3n2)CC[C@H]1NC(=O)c1cc(Cl)cc2c1OC(C)(C)C2 [Compound 13]
IC50 (TANK-2 enzyme): > 10 µM

SMILES: CO[C@@H]1CN(CCCNc2nc(O)c3cc(Cl)ccc3n2)CC[C@@H]1NC(=O)c1cc(Cl)c(N)c2c1OC(C)(C)C2 [Compound 16]
IC50 (TANK-2 enzyme): > 10 µM

SMILES: CO[C@@H]1CN(CCCNc2nc(O)c3ccc(Cl)cc3n2)CC[C@@H]1NC(=O)c1cc(Cl)c(N)c2c1OC(C)(C)C2 [Compound 17]
IC50 (TANK-2 enzyme): > 10 µM

SMILES: NC(=O)c1cccc(N)c1 [3-amino-benzamide]
reductions in infarct size in the heart ([1]; single injection 10 mg/kg, one minute before occlusion or one minute before reperfusion): 32-42%
inflammatory response, morphology and energetic status of the distal colon (colitis): reduced the inflammatory response and restored the morphology and the energetic status of the distal colon

Next, values leading:

IC50 (PARP-1 enzyme): 0.0452 µM
SMILES: COc1cc2nc(NCCN3CCN(c4n[nH]c5ccccc45)CC3)[nH]c(=O)c2cc1OC [Compound 32]

IC50 (TANK-2 enzyme): > 10 µM
SMILES: CC1(C)Cc2cc(Cl)cc(C(=O)NC3CCN(CCNc4nc(O)c5ccccc5n4)CC3)c2O1 [Compound 12]

IC50 (TANK-2 enzyme): > 10 µM
SMILES: O=c1[nH]c(NCCN2CCN(c3n[nH]c4ccccc34)CC2)nc2ccccc12 [Compound 19]

melting point: 118 °C
SMILES: CCc1cc2cc(CN3CCN(CCNc4nc5ccccc5c(=O)[nH]4)CC3)ccc2nc1OC (hydrate or solvate) [Compound 3]

IC50 (PARP-1 enzyme): 0.0107 µM
SMILES: O=c1[nH]c(NCCN2CCN(c3n[nH]c(=O)c4ccccc34)CC2)nc2ccccc12 [Compound 35]

IC50 (PARP-1 enzyme): 0.0217 µM
SMILES: Cc1cccc2nc(NCCN3CCC(c4n[nH]c5cc(F)ccc45)CC3)[nH]c(=O)c12 [Compound 34]
